Measurements as given in patent US20050186274A1, “Multilayer tablet” (Boehringer Ingelheim International GmbH, priority 2004, published 2005).

Assays:
[1] = Dissolution rate of HCTZ from tablet matrix; format: physicochemical; conditions: from a dissolving matrix as compared with dissolution from a disintegrating tablet
[2] = physiological pH range of the gastrointestinal tract, pH 1 to 7; free acid form; cited from earlier work

SMILES | dissolution rate of HCTZ [1] | solubility in aqueous systems [2]
NS(=O)(=O)c1cc2c(cc1Cl)NCNS2(=O)=O [HCTZ, 6-chloro-3,4-dihydro-2H-1,2,4-benzothiadiazine-7-sulfonamide-1,1-dioxide] | reduced dissolution rate | –
CCCc1nc2c(C)cc(-c3nc4ccccc4n3C)cc2n1Cc1ccc(-c2ccccc2C(=O)O)cc1 [Telmisartan, 4′-[2-n-propyl-4-methyl-6-(1-methylbenzimidazol-2-yl)-benzimidazol-1-ylmethyl]-biphenyl-2-carboxylic acid] | – | very poor solubility
